Measurements reported in US20170044150A1, “IDENTIFICATION OF COMPOUNDS WHICH INHIBIT ATG8-ATG3 PROTEIN-PROTEIN INTERACTION AND THEIR USE AS ANTIPARASITICAL AGENTS” (THE JOHNS HOPKINS UNIVERSITY, priority 2014, published 2017).

Key:
[1] = molecular target: T1, hLC3-hAtg3 interaction (Homo sapiens, UniProt Q9GZQ8); assay: SPR protein-protein interaction assay, hLC3-hAtg3; type: binding; settings: 500 μM
T1 construct: made in house; host or cells: E. coli Rosetta 2
Description: Surface Plasmon Resonance (SPR) protein-protein interaction assay. All measurements were carried out on a BiaCore 3000 instrument. We used the previously described SPR competition assay to test inhibition of the PfAtg8-PfAtg3 and hLC3-hAtg3 interaction. The standard running buffer was 10 mM HEPES, 150 mM NaCl, 0.01% Tween 20, adjusted to pH 7.5. Prior to performing SPR assays, all solutions were sterile filtered and degassed for 1 h at room temperature. For small molecule inhibitor studies, the same running buffer was supplemented with 1% DMSO. All dose dependency measurements were carried out in triplicate and corrected for DMSO absorption effects using double referencing with interspersed blank injections and an untreated flow cell on the SPR chip and the SPR analysis software Scrubber 2.0 (BioLogics). For each interaction pair, a new CM5 SPR chip was used. To exclude surface decay during the experiment, positive control injections were interspersed every 12th injection. For all interaction studies, the Atg3 homologue was immobilized and the corresponding Atg8 partner was passed as an analyte over the chip in either the presence or absence of small molecule inhibitors, dissolved to 100 mM in 100% DMSO and tested at 500 μM final concentration. […]

[2] = system: P. falciparum 3D7; assay: SYBR Green I growth inhibition assay, blood stage; type: cell-based; settings: Plasmodium falciparum, 3D7, 3D7 blood stage cultures; read-out: IC50
Description: P. falciparum blood stage culturing. P. falciparum 3D7 and FCR3 cultures were maintained using modified, previously published methods at 37° C., 2% hematocrit of human red blood cells (Science 1976, 193, 673-675). Complete culture media consisted of sterile RPMI 1640 media (Life Technologies), supplemented with 10% human serum, 0.005% hypoxanthine, and buffered with final concentrations of 0.6% HEPES and 0.26% NaHCO3. The FCR3 strain was maintained at 3% CO2 and 5% O2, 92% N2 atmosphere, while the 3D7 strain was maintained at 5% CO2, 5% O2, 90% N2 atmosphere.
SYBR Green I growth inhibition assay. 10 μL of 10× compound diluted in RPMI 1640 media (Gibco) with a constant concentration of 1% DMSO was added to a 96 well plate (Costar), 90 μL of 1.5% ring stage, synchronized with 5% w/v sorbitol P. falciparum 3D7 parasites, 1% hematocrit, in culture media with 10% v/v human serum with 10 μg/mL gentamycin. Each compound concentration and 1% v/v DMSO controls were run in triplicate. Plates were incubated at 37° C. in 5% O2, 5% CO2 and 90% N2 for 72 hours. Plates were frozen, thawed, and incubated with 100-μL 2× SYBR green in lysis buffer (20 mM Tris pH 7.5, 5 mM EDTA, 0.008% Saponin, 0.08% TritonX-100) in the dark for at least one hour. Fluorescence was measured with a plate reader (HTS 7000, Perkin Elmer) at excitation/emission wavelengths of 485/535 nm.
Plasmodium parasite growth inhibition assay. P. falciparum 3D7 parasites were cultured as previously described (J Med Chem 57:4521-4531(2014)). Briefly, the parasites were cultured in 10% v/v human serum with 10 μg/mL gentamycin and synchronized with 5% w/v sorbitol. 1.5% ring stage parasites were added to 96 well plates (Costar) containing serial dilutions, performed in triplicate, of compound in RPMI 1640 media (Gibco). Plates were incubated at 37° C. in 5% O2, 5% CO2, and 90% N2 for 72 h. Plates were frozen, thawed, and incubated with 100 μL 2× SYBR green in lysis buffer (20 mM Tris pH 7.5, 5 mM EDTA, 0.008% Saponin, 0.08% TritonX-100) in the dark for 1 h. Fluorescence was measured with a plate reader (HTS 7000, PerkinElmer) at excitation/emission wavelengths of 485/535 nm.

[3] = system: P. falciparum 3D7-GFP; type: cell-based; settings: 96 hrs post infection
Description: In vitro infection of human hepatocytes with P. falciparum 3D7-GFP. The HC-04 cell line (ATCC, Manassas, Va., USA) was maintained in complete medium (IMDM containing 2.5% FCS, 100 units/ml penicillin, 100 μg/ml streptomycin and 2 mM L-glutamine, all from GIBCO®, Life Technologies, Grand Island, N.Y.). P. falciparum 3D7-GFP parasite strain (PLoS ONE 2010, 5, e9156) was propagated in the Parasitology Core facility, the Johns Hopkins Malaria Research Institute. In vitro infection of human hepatocytes was done as described previously (PLoS ONE 2013, 8, e75321). Briefly, salivary glands were sequestered from infected Anopheles gambiae mosquitoes at day 17 after exposure to infective blood meal and homogenates were separated on an OptiPrep™ Density Gradient (Sigma-Aldrich, St. Louis, Mo.) at 12,000×g for 10 minutes. Sporozoites were collected from the gradient interface, washed in complete medium, counted using a hemocytometer and incubated with HC-04 cells at 3:1 sporozoite to hepatocyte ratio for 2 hours at 37° C. […]
Detection of P. falciparum exoerythrocytic forms in vitro. HC-04 human hepatocyte cell line (ATCC, Manassas, Va., USA) was maintained in complete medium (IMDM containing 2.5% FCS, 100 units/ml penicillin, 100 μg/ml streptomycin and 2 mM L-glutamine, all from GIBCO®, Life Technologies, Grand Island, N.Y.). P. falciparum 3D7HT-GFP parasite strain (PLoS One. 5(2):e9156. doi:10.1371/journal.pone.0009156 (2010)) was propagated in the Parasitology Core facility of the Johns Hopkins Malaria Research Institute. In vitro infection of human hepatocytes, and detection and quantification of P. falciparum 3D7HT-GFP EEFs by flow cytometry were performed as previously described (PLoS One. 8(9):e75321. doi:10.1371/journal.pone.0075321 (2013)).

[4] = system: HC-04 cells; assay: HC-04 hepatocyte viability / cytotoxicity (Annexin-V, PI flow cytometry); type: cell-based, human; settings: 96 hour treatment
Description: Detection of Annexin-V positive and PI-positive cells in hepatocyte cultures was done by flow cytometry according to the manufacturer's instruction (Invitrogen™, Life Technologies, Grand Island, N.Y., USA).
Hepatocyte cytotoxicity assay. Hepatocyte cytotoxicity assays were carried out in triplicate at two concentrations of inhibitory compounds using HC-04 cells as previously described. Flow cytometry was used to assess two cytotoxicity markers via staining, namely propidium iodine (PI) and Annexin-V.

[5] = system: PfAtg8; assay: Immunoblot analysis of PfAtg8 in P. falciparum blood stage cultures; type: cell-based; settings: 100 μM, five-hour treatment
Description: Immunoblot analysis of P. falciparum blood stage. […] RBCs were harvested with centrifugation, lysed with 0.2% saponin, and RBC lysate was removed through three 1× PBS washes. Parasites were harvested by centrifugation and washed in 1× PBS with Complete EDTA-free protease inhibitors (Roche) and lysed by repeated vortexing and boiling in SDS reducing sample buffer. […] HRP-conjugated secondary antibodies (Southern Biotech) were detected by SuperSignal West Femto (Thermo Scientific) or Amersham™ ECL™ Prime (GE Healthcare) chemiluminescent substrate. AP-conjugated secondary antibodies (EMD Millipore) were detected using NBT/BCIP (Promega) colorimetric stain. Total protein levels were visualized with ProAct™ Membrane Stain (Amresco) and quantified with ImageJ. Parasite morphology at time of harvesting was visualized with light microscopy at 100× magnification on Olympus BX53 system microscope (Olympus America, Inc.).

[6] = molecular target: T2, PfAtg8-PfAtg3 interaction (Plasmodium falciparum, UniProt Q8IJK2); assay: SPR protein-protein interaction assay, PfAtg8-PfAtg3 (VLS compounds); type: binding, P. falciparum; settings: read-out: SPR-IC50; dose-dependent inhibition of plasmodial Atg8-Atg3
T2 construct: rows headed: SPR-IC50
T2 sequence (Q8IJK2 1-124 C32I/C119S/C122S): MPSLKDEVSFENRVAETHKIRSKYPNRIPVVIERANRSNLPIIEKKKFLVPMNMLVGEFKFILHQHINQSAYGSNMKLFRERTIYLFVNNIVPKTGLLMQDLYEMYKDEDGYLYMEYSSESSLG
Description: Surface Plasmon Resonance (SPR) protein-protein interaction assay. All measurements were carried out on a BiaCore 3000 instrument. We used the previously described SPR competition assay to test inhibition of the PfAtg8-PfAtg3 and hLC3-hAtg3 interaction. The standard running buffer was 10 mM HEPES, 150 mM NaCl, 0.01% Tween 20, adjusted to pH 7.5. Prior to performing SPR assays, all solutions were sterile filtered and degassed for 1 h at room temperature. For small molecule inhibitor studies, the same running buffer was supplemented with 1% DMSO. All dose dependency measurements were carried out in triplicate and corrected for DMSO absorption effects using double referencing with interspersed blank injections and an untreated flow cell on the SPR chip and the SPR analysis software Scrubber 2.0 (BioLogics). For each interaction pair, a new CM5 SPR chip was used. To exclude surface decay during the experiment, positive control injections were interspersed every 12th injection. For all interaction studies, the Atg3 homologue was immobilized and the corresponding Atg8 partner was passed as an analyte over the chip in either the presence or absence of small molecule inhibitors, dissolved to 100 mM in 100% DMSO and tested at 500 μM final concentration. Prior to the immobilization of Atg3 to an SPR chip, a pH scouting from pH 6.0 to pH 4.0 in intervals of 0.5 pH units was carried out to determine the best pre-concentration conditions for immobilization. Briefly, flow cells of an SPR chip were activated using N-hydroxysuccinimide (NHS) and 1-ethyl-3-(3-dimethylaminopropyl)carbodiimide (EDC) for 7 min with a flow rate of 20 μl/min. For PfAtg3 immobilization, a solution of 50 μg/ml of PfAtg3 in 10 mM sodium acetate pH 5.0 was passed over one flow cell until >500 Response Units (RU) were captured. The same procedure was followed for the immobilization of hAtg3. Activated free binding sites on the chip were blocked using 1 M ethanolamine for an additional 7 min. All experiments were carried out at 25° C. with a 40 μl/min flow rate and 75 s contact time, followed by a 1 min dissociation time and a 25 μl regeneration injection of 2 M MgCl2.
The dose-response curves were used to determine the approximate concentration of analyte (PfAtg8 or hLC3) needed to obtain a particular response unit (RU), typically in the range of 100-150 RU's. A fixed amount of analyte was then passed over the chip resulting in at least 100-150 response units (RU) in the absence of small molecules.

[7] = molecular target: PfAtg8^CM (Plasmodium falciparum, UniProt Q8IJK2); assay: Thermal shift assay; settings: 100 μM to 2 mM

| Structure (SMILES) | effect on hAtg3-hLC3 binding [1] | IC50 [2] [µM] | reduction of the number of infected HC-04 cells ([3]; 30 μM) [%] | GFP fluorescence intensity [3] | cell viability of HC-04 cells [4] | increase of PfAtg8 protein levels compared to the loading control [5] | mobility of Atg8 [5] | IC50 [6] [µM] | effect on Tm of PfAtg8^CM [7] |
| --- | --- | --- | --- | --- | --- | --- | --- | --- | --- |
| Cc1cccn2cc(C(=O)NCC3CCN(Cc4cnc[nH]4)C3)nc12 (stereo not drawn) [Compound C24, N-([1-(1H-imidazol-5-ylmethyl)pyrrolidin-3-yl]methyl)-8-methyl-imidazo[3,2-a] pyridine-2-carboxamide] | significant increase in binding |  |  |  |  |  |  |  |  |
| Cc1cccc(CNC(=O)NCC2CCN(Cc3ccccn3)C2)c1 (stereo not drawn) [Compound C25, 1-[(3-methylphenyl)methyl]-3-([1-pyridin-2-ylmethyl-pyrrolidin-3-yl]methyl)urea] |  | 19 ± 6 | 30 | little effect | did not affect cell viability | over 10 fold | retarded, indicative of the unlipidated Atg8 species | 18.5 ± 2.1 | dose-dependent decrease |
